In patent publication US20030125287A1, “Antisense oligonucleotides and methods to induce tumor cell death” (Hybridon, Inc., priority 2001, published 2003):
Entries after “also recorded” stand apart in the source; their conditions may differ. Read-outs that look alike come from different tables or passages of the source. Oligonucleotides are written 5' to 3', each unit as a sugar letter and its base; * is a phosphorothioate linkage, no mark a phosphodiester; rarer units and linkages stand in square brackets, end groups in braces. Plain capitals give the bases only. d = 2'-deoxy (DNA)

Tests used:
caspase-3 = assay: Caspase-3 activity assay in MSN cells; assay type: cell-based, human; settings: MSN cells, 400 nM, 48 hours; for caspase-3 activity, Relative units/mg protein +/− SD: triplicate
Method: MSN cells were treated with lipofectin, 400 nM survivin antisense oligonucleotide 903, 904, or mismatched oligonucleotide 1132, for a 48 hour period. Cell pellets were washed twice in cold PBS and re-suspended in ice-cold hypotonic cell lysis buffer (25 mM HEPES, pH 7.5, 5 mM MgCl2, 5 mM EDTA, 5 mM DTT, 2 mM PMSF, 10 μg/ml pepstatin A, 10 μg/ml leupeptin). Re-suspended pellets were incubated on ice for 20 min, followed by brief sonication for two seconds. Lysates were centrifuged at 14,000 rpm for 20 minutes at 4° C. The supernatant was retained and the protein concentration analyzed by the Bio-Rad protein assay described above.
Supernatants were assayed in triplicate, with and without the caspase-3 inhibitor, Ac-DEVD-CHO, using black opaque, 96 well, flat bottom plates (Greiner Laboratories, USA Scientific Inc., Orlando, Fla.). 50-100 μg of the supernatant was incubated in caspase-3 assay buffer (100 mM HEPES, pH 7.5, 10% sucrose, 0.1% CHAPS and 10 mM DTT) with either 2 μl of DMSO or 2 μl of 2.5 mM Ac-DEVD-CHO (Pharmingen, San Diego, Calif.) so that the final concentration of the inhibitor was 50 μM in a final volume of 100 μl. It was then incubated at 30° C. for 30 minutes. Subsequently, 2 μl of the caspase-3 substrate 2.5 mM Ac-DEVD-AMC (Pharmingen, San Diego, Calif.) (final concentration 50 μM)) was added to each well. Plates were incubated at 30° ° C. for 60 minutes in the dark.
Fluorescence of the reaction was measured using a SPECTRAmax GEMINI spectrofluorometer using SOFTmax® PRO software (Molecular Devices, Sunnyvale, Calif.) at an excitation wavelength of 355 nm and an emission wavelength of 460 nm with a cutoff filter of 455 nm. The data is presented as the ratio of the mean relative fluorescence units/mg protein±SD.

XIAP [1] = settings: MSN cells; 400 nM; 48 hours (FIG. 10A)
Method: MSN cells were treated with lipofectin or 400 nM survivin antisense oligonucleotides 900, 901, 903, 904, 905 and 906. Total protein was isolated 48 hours after treatment, and 100 μg of protein was loaded per lane. The blot was incubated with a monoclonal antibody against XIAP (1:1000; IgG1). Visualization was by enhanced chemiluminescence (ECL). […] The experiment was performed twice.
Total protein homogenates were prepared according to a previously described procedure (Albala et al. (1995) J. Neurochem. 64:2480-2490). Protein content was measured using the Bio-Rad detection system (Bio-Rad Laboratories, Hercules, Calif.). Equal amounts of protein were analyzed by SDS-PAGE on 10% gels (Laemmli (1970) Nature 227:680-685). The resolved polypeptides were electrophoretically transferred to nitrocellulose (Towbin et al. (1979) Proc. Natl. Acad. Sci. USA 76:4350-4354).
(§1) Survivin polyclonal antibody was purchased from R & D Systems, Inc. (Minneapolis, Minn.). […] A generic β-tubulin monoclonal antibody (TUB 2.1) was purchased from SIGMA (St. Louis, Mo.). The XIAP mAb was purchased from StressGen Biotechnologies Corp. (Victoria, Canada). The poly-ADP ribosyl polymerase (PARP) mAb was purchased from PharMingen/Transduction Laboratories (San Diego, Calif.).

survivin = assay: Western blot of survivin protein in antisense oligonucleotide-treated TC620 cells; assay type: cell-based, human; settings: for percentage of survivin protein over β-tubulin relative to lipofectin: 48 hours (FIG. 5A)
Method: Subconfluent TC620 oligodendroglioma cells were transfected with lipofectin or increasing concentrations of survivin antisense oligonucleotide 904 (25 nM to 400 nM). 75 µg of total protein was loaded per lane. Blots were cut at 32.9 kD and the bottom was incubated with a survivin polyclonal antibody (1:500), while the top was incubated with a β-tubulin monoclonal antibody (1:1000).
The antisense oligonucleotides were synthesized on solid support with an automated DNA synthesizer using β-cyanoethylphosphoramidite chemistry. In order to prevent rapid degradation of the antisense oligonucleotides by cellular nucleases, oxidation was carried out with Becauge sulfurizing agent to obtain phosphorothioate backbone modified oligonucleotides. After their synthesis, the oligonucleotides were released from the solid support, deprotected, purified by reverse-phase HPLC, desalted, filtered and lyophilized. The purity and sequence integrity of oligonucleotides was ascertained by capillary gel electrophoresis and MALDI-TOF mass spectral analysis and the concentrations measured at […]. Cells were grown in 100 mm dishes and oligonucleotide treatment was performed on subconfluent cultures in the presence of Lipofectin (GIBCO) according to the manufacturer. Forty-eight hours following treatment, total protein homogenates were isolated.
Ten micrograms of the fusion protein was incubated with the survivin antibody (1:500) at 4° C. for 2 hours to overnight prior to immunoblotting. […] Blots were cut at 32.9 kD, and the bottom part of the blots were incubated with the survivin antibody overnight at 4° C. and visualized by enhanced chemiluminescence (Enhanced Chemiluminescence, Amersham, Arlington Heights, Ill.) as previously described (Sharma et al. Cell. Motil. Cytoskeleton 27:234-247).

XIAP [2] = assay: Western blot of XIAP protein in TC620 cells; assay type: cell-based, human; settings: 48 hours (FIG. 10B)
Method: TC620 oligodendroglioma cells were transfected with lipofectin or increasing concentrations of survivin antisense oligonucleotide 904 (25 to 400 nM). Total protein was isolated after 48 hours of treatment and 75 μg of total protein was loaded per lane. The experiment was performed once.

PARP [3] = assay: PARP cleavage immunoblot in MSN cells; assay type: cell-based, human
Method: To determine whether MSN cell death by survivin antisense oligonucleotides was mediated by caspase-3 activation, studies were conducted to examine whether PARP was cleaved following survivin antisense treatment. […] Since no PARP cleavage was detected, further tests were conducted to determine whether survivin antisense-treated cells have any active caspase-3.

PARP [4] = settings: TC620 cells; 100 nM to 400 nM (FIG. 5B)
Method: 75 μg of total protein was loaded per lane. Following gel electrophoresis and transfer to nitrocellulose membrane, the blot was incubated with a PARP monoclonal antibody (1:500) and visualized by enhanced chemiluminescence.
as §1

d(GCACCTAGTCTCCCTGCACC) (DNA, all phosphorothioate, methylation of C not given here) [Oligo 1132, mismatched phosphorothioate control oligonucleotide, not complementary to survivin mRNA, reference compound]
caspase-3 activity (caspase-3): no significant increase in caspase-3 activity | caspase-3 activity, Relative units/mg protein +/− SD (caspase-3): 30,961 ± 1681 Relative units/mg protein

d(GCTTCCCAGTCACATCCTGT) (antisense dG*dC*dT*dT*dC*dC*dC*dA*dG*dT*dC*dA*dC*dA*dT*dC*dC*dT*dG*dT) [Oligo 906]
fold change of XIAP protein over β-tubulin relative to lipofectin (XIAP [1]): 8.3 fold

d(TCTTGGCTCTTTCTCTGTCC) (antisense dT*dC*dT*dT*dG*dG*dC*dT*dC*dT*dT*dT*dC*dT*dC*dT*dG*dT*dC*dC) [Oligo 904]
caspase-3 activity (caspase-3): no significant increase in caspase-3 activity; also recorded: did not activate caspase-3 | caspase-3 activity, Relative units/mg protein +/− SD (caspase-3): 33,532 ± 3732 Relative units/mg protein | effect on survivin protein levels (survivin): marked concentration-dependent reduction in survivin protein levels | percentage of survivin protein over β-tubulin relative to lipofectin (survivin; 25 nM): 109.1% | percentage of survivin protein over β-tubulin relative to lipofectin (survivin; 50 nM): 97.4% | percentage of survivin protein over β-tubulin relative to lipofectin (survivin; 100 nM): 67.6% | percentage of survivin protein over β-tubulin relative to lipofectin (survivin; 200 nM): 45.2% | decrease in survivin protein abundance relative to lipofectin-treated cells (survivin; 400 nM (FIG. 5A)): 54% | percentage of survivin protein over β-tubulin relative to lipofectin (survivin; 400 nM): 45.7% | fold change of XIAP protein over β-tubulin relative to lipofectin (XIAP [2]; 25 nM): 1.3 fold | fold change of XIAP protein over β-tubulin relative to lipofectin (XIAP [2]; 50 nM): 1.0 fold | fold change of XIAP protein over β-tubulin relative to lipofectin (XIAP [2]; 100 nM): 0.71 fold | fold change of XIAP protein over β-tubulin relative to lipofectin (XIAP [2]; 200 nM): 0.67 fold | fold change of XIAP protein over β-tubulin relative to lipofectin (XIAP [2]; 400 nM): 0.66 fold | PARP cleavage, words (PARP [3]): did not activate caspase-3 or cleave the caspase-3 substrate, PARP | PARP cleavage (116 kD to 85 kD fragment), words (PARP [4]): dramatic decrease of the 116 kD PARP protein; also recorded: resulted in the cleavage of the 116 kD caspase-3 substrate PARP
